Measurements as given in paper PMC3307315 (The Journal of Biological Chemistry, 2012).

Assays:
NRF2 = conditions: cited from earlier work
HEK293T cells = assay: Cell viability; type: cell-based; conditions: siRNA knockdown, etoposide, MTT (Fig. 2E)
35S-labeled NRF2 = type: biochemical; conditions: HEK293T cell-free extracts
endogenous KEAP1 = assay: Streptavidin affinity pulldown of GLUE-WTX and Western blot, endogenous KEAP1; type: cell-based

| Molecule | half-life of exogenous and endogenous NRF2 in intact cells (NRF2) | resistance to apoptosis-inducing reagents (conclusion) (HEK293T cells) | half-life of exogenous NRF2 in cell extracts (35S-labeled NRF2) | complex with endogenous KEAP1 (endogenous KEAP1) |
| --- | --- | --- | --- | --- |
| NRF2: transcription factor NF-E2-related factor-2 | ~0.333 h | promote resistance to apoptotic inducing reagents | ~6 h |  |
| GLUE-WTX: N-terminal streptavidin-binding protein, calmodulin-binding protein, the hemagglutinin epitope (HA), and WTX (protein, UniProt Q5JTC6 1-1135, looked up, streptavidin-binding, calmodulin-binding peptide and HA tags) APC membrane recruitment …: METQKDEAAQAKGAAASGSTREQTAEKGAKNKAAEATEGPTSEPSSSGPGRLKKTAMKLFGGKKGICTLPSFFGGGRSKGSGKGSSKKGLSKSKTHDGLSEAAHGPEDVVSEGTGFSLPLPELPCQFPSSQSAHGALETGSRCKTSVAGATEKAVAEKFPSMPKPKKGLKGFFSSIRRHRKSKVTGAEQSEPGAKGPERVRARPHEHVSSAPQVPCFEETFQAPRKENANPQDAPGPKVSPTPEPSPPATEKMACKDPEKPMEACASAHVQPKPAPEASSLEEPHSPETGEKVVAGEVNPPNGPVGDPLSLLFGDVTSLKSFDSLTGCGDIIAEQDMDSMTDSMASGGQRANRDGTKRSSCLVTYQGGGEEMALPDDDDEEEEEEEEVELEEEEEEVKEEEEDDDLEYLWETAQMYPRPNMNLGYHPTTSPGHHGYMLLDPVRSYPGLAPGELLTPQSDQQESAPNSDEGYYDSTTPGFEDDSGEALGLVRRDCLPRDSYSGDALYEFYEPDDSLENSPPGDDCLYDLHGRSSEMFDPFLNFEPFLSSRPPGAMETEEERLVTIQKQLLYWELRREQLEAQEARAREAHAREAHAREAYTREAYGREAYAREAHTWEAHGREARTREAQAREVRCRETQVRETQARQEKPVLEYQMRPLGPSVMGLAAGVSGTSQISHRGITSAFPTTASSEPDWRDFRPLEKRYEGTCSKKDQSTCLMQLFQSDAMFEPDMQEANFGGSPRRAYPTYSPPEDPEEEEVEKEGNATVSFSQALVEFTSNGNLFSSMSCSSDSDSSFTQNLPELPPMVTFDIADVERDGEGKCEENPEFHNDEDLAASLEAFELGYYHKHAFNNYHSRFYQGLPWGVSSLPRYLGLPGLHPRPPPAAMALNRRSRSLDTAETLEMELSNSHLVQGYLESDELQAQQEDSDEEDEEEEEGEWSRDSPLSLYTEPPGAYDWPAWAPCPLPVGPGPAWISPNQLDRPSSQSPYRQATCCIPPMTMSISLSVPESRAPGESGPQLARPSHLHLPMGPCYNLQPQASQSMRARPRDVLLPVDEPSCSSSSGGFSPSPLPQAKPVGITHGIPQLPRVRPEHPQPQPTHYGPSSLDLSKERAEQGASLATSYSSTAMNGNLAK |  |  |  | endogenous KEAP1 forms a complex with GLUE-WTX |
